“And” between values parts separate entries of the source, which are not always exact repeats. Equal entries are not always repeated. Where two headings read alike, the source gives them in different places.
Columns and labels:
5-HT1A receptor [1] = molecular target: T1, 5-HT1A receptor (Macaca mulatta, UniProt F7GIU0); assay type: in vivo, rhesus monkey
T1 sequence (F7GIU0 1-421): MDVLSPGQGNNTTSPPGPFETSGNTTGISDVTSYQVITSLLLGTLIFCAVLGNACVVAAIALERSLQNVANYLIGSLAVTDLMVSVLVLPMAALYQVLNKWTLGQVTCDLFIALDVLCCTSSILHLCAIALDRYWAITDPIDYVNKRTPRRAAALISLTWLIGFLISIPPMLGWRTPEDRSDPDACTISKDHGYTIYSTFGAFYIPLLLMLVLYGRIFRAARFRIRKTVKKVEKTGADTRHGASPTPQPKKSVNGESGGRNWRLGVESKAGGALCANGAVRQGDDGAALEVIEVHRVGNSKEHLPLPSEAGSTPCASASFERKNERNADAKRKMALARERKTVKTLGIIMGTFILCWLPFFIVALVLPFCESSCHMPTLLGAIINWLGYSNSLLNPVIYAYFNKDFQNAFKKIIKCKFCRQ

5-HT1A receptor sites = experiment: Estimated occupancy by unlabeled ligand mass in the PET studies; assay type: in vivo, rhesus monkey; conditions: for occupancy of the unlabeled drug: comparable ED50 assumed; for occupancy at the 5-HT1A receptor sites: estimated from rat ED50
p-glycoprotein (Pgp) = conditions: cited from earlier work
[2] = Cerebellar kinetics by PET, single-tissue compartment model; conditions: for cerebellar clearance rate, slow component: exponential fit, t > 30 minutes
[3] = Arterial plasma kinetics of parent radiotracer; conditions: for fraction of radioactivity in the plasma due to parent radiotracer: 30 minutes after injection; for clearance rate from the arterial plasma: after period of rapid clearance (>30 minutes), bolus injection
5-HT1A receptor [4] = conditions: ref Saigal et al., 2006, cited from earlier work
[5] = rhesus monkey, previous measurements; ref Saigal et al., 2006; cited from earlier work
[6] = ref Pike et al., 2000; Saigal et al., 2006; cited from earlier work

COc1ccccc1N1CCN(CCN(C(=O)c2ccc(F)cc2)c2ccccn2)CC1 [[F-18]MPPF, 4-Fluoro-N-[2-[4-(2-methoxyphenyl)piperazin-1-yl]ethyl]-N-pyridin-2-ylbenzamide]
BPND (5-HT1A receptor [1]; ACG, mean over subjects): 2.1±0.2 and 2.12
BPND (5-HT1A receptor [1]; ACG, subject M1): 2.05
BPND (5-HT1A receptor [1]; ACG, subject M2): 2.19
BPND (5-HT1A receptor [1]; ACG, subject M3): 1.93
BPND (5-HT1A receptor [1]; ACG, subject M4): 2.30
time to plateau of target to CB ratio (pseudoequilibrium) (5-HT1A receptor [1]; IC (intermediate binding)): approximately 20 minutes
BPND (5-HT1A receptor [1]; IC, mean over subjects): 1.2±0.1 and 1.15
BPND (5-HT1A receptor [1]; IC, subject M1): 1.24
BPND (5-HT1A receptor [1]; IC, subject M2): 1.11
BPND (5-HT1A receptor [1]; IC, subject M3): 0.98
BPND (5-HT1A receptor [1]; IC, subject M4): 1.28
BPND (5-HT1A receptor [1]; MTC, mean over subjects): 3.1±0.4 and 3.14
BPND (5-HT1A receptor [1]; MTC, subject M1): 3.01
BPND (5-HT1A receptor [1]; MTC, subject M2): 3.67
BPND (5-HT1A receptor [1]; MTC, subject M3): 2.99
BPND (5-HT1A receptor [1]; MTC, subject M4): 2.88
BPND (5-HT1A receptor [1]; RN, mean over subjects): 1.3±0.3 and 1.34
BPND (5-HT1A receptor [1]; RN, subject M1): 1.49
BPND (5-HT1A receptor [1]; RN, subject M2): 1.71
BPND (5-HT1A receptor [1]; RN, subject M3): 0.98
BPND (5-HT1A receptor [1]; RN, subject M4): 1.18
time to plateau of target to CB ratio (pseudoequilibrium) (5-HT1A receptor [1]; high binding regions): approximately 30 minutes
occupancy of the unlabeled drug (5-HT1A receptor sites): less than 3%
Pgp substrate (p-glycoprotein (Pgp); ref Passchier et al., 2000): substrate for p-glycoprotein (Pgp)
cerebellar clearance rate, slow component [2]: 0.011 min⁻¹
K1 in the cerebellum ([2]; mean over subjects): 1.00 mL/min/mL
k2 in the cerebellum ([2]; mean over subjects): 0.34 min⁻¹
Kp ([2]; rhesus monkey, in vivo, DVND (nondisplaceable distribution volume, K1/k2), cerebellum, subject M4): 2.89
K1 in the cerebellum ([2]; subject M2): 0.90 mL/min/mL
k2 in the cerebellum ([2]; subject M2): 0.29 min⁻¹
K1 in the cerebellum ([2]; subject M3): 1.32 mL/min/mL
k2 in the cerebellum ([2]; subject M3): 0.45 min⁻¹
K1 in the cerebellum ([2]; subject M4): 0.78 mL/min/mL
k2 in the cerebellum ([2]; subject M4): 0.27 min⁻¹
fraction of radioactivity in the plasma due to parent radiotracer [3]: 28%
clearance rate from the arterial plasma [3]: 0.0078 min⁻¹

COc1ccccc1N1CCN(CCN(C(=O)C2CCC(CF)CC2)c2ccccn2)CC1 (stereo not shown) [mefway]
IC50 (5-HT1A receptor [4]; against [F-18]mefway): 25.7 nM
Pgp substrate (p-glycoprotein (Pgp); no reference given): Neither mefway nor WAY100635 have been found to be Pgp substrates

COc1ccccc1N1CCN(CCN(C(=O)C2CCC(C[18F])CC2)c2ccccn2)CC1 (stereo not shown) [[F-18]mefway, N-{2-[4-(2-methoxyphenyl)piperazinyl]ethyl}-N-(2-pyridyl)-N-(4-[F-18]-fluoromethylcyclohexane)carboxamide]
BPND (5-HT1A receptor [1]; ACG, mean over subjects): 7.2±1.2
BPND (5-HT1A receptor [1]; ACG, mean over subjects, listed as [F-18]MEFWAY): 7.15
BPND (5-HT1A receptor [1]; ACG, subject M1): 6.92
BPND (5-HT1A receptor [1]; ACG, subject M2): 7.00
BPND (5-HT1A receptor [1]; ACG, subject M3): 5.87
BPND (5-HT1A receptor [1]; ACG, subject M4): 8.82
BPND (5-HT1A receptor [1]; IC, mean over subjects): 4.2±0.6
BPND (5-HT1A receptor [1]; IC, mean over subjects, listed as [F-18]MEFWAY): 4.16
BPND (5-HT1A receptor [1]; IC, subject M1): 4.51
BPND (5-HT1A receptor [1]; IC, subject M2): 3.57
BPND (5-HT1A receptor [1]; IC, subject M3): 3.72
BPND (5-HT1A receptor [1]; IC, subject M4): 4.83
BPND (5-HT1A receptor [1]; MTC, mean over subjects): 7.4±0.6
BPND (5-HT1A receptor [1]; MTC, mean over subjects, listed as [F-18]MEFWAY): 7.36
BPND (5-HT1A receptor [1]; MTC, subject M1): 7.23
BPND (5-HT1A receptor [1]; MTC, subject M2): 8.25
BPND (5-HT1A receptor [1]; MTC, subject M3): 7.17
BPND (5-HT1A receptor [1]; MTC, subject M4): 6.77
plateau of target to CB ratio (5-HT1A receptor [1]; MTC, total time of acquisition): a plateau is not reached within the total time of acquisition
BPND (5-HT1A receptor [1]; RN, mean over subjects): 3.7±0.6
BPND (5-HT1A receptor [1]; RN, mean over subjects, listed as [F-18]MEFWAY): 3.69
BPND (5-HT1A receptor [1]; RN, subject M1): 4.06
BPND (5-HT1A receptor [1]; RN, subject M2): 4.00
BPND (5-HT1A receptor [1]; RN, subject M3): 2.85
BPND (5-HT1A receptor [1]; RN, subject M4): 3.84
time to plateau of target to CB ratio (5-HT1A receptor [1]; high uptake regions, 2 hour scanning period): > 2 h
occupancy of the unlabeled drug (5-HT1A receptor sites): less than 3%
fraction of radiolabeled lipophilic metabolites [5]: < 10%
displacement of binding (5-HT1A receptor [4]; competition of 10 μM of WAY100635): almost completely displaced
logP [6]: 2.62
DVND (nondisplaceable distribution volume, K1/k2) ([2]; cerebellum, mean over subjects): 4.02
DVND (nondisplaceable distribution volume, K1/k2) ([2]; cerebellum, subject M1): 4.92
DVND (nondisplaceable distribution volume, K1/k2) ([2]; cerebellum, subject M2): 3.53
DVND (nondisplaceable distribution volume, K1/k2) ([2]; cerebellum, subject M3): 4.22
DVND (nondisplaceable distribution volume, K1/k2) ([2]; cerebellum, subject M4): 3.41
cerebellar clearance rate, slow component [2]: 0.010 min⁻¹
K1 in the cerebellum ([2]; mean over subjects): 1.02 mL/min/mL
k2 in the cerebellum ([2]; mean over subjects): 0.27 min⁻¹
K1 in the cerebellum ([2]; subject M1): 0.59 mL/min/mL
k2 in the cerebellum ([2]; subject M1): 0.12 min⁻¹
K1 in the cerebellum ([2]; subject M2): 1.34 mL/min/mL
k2 in the cerebellum ([2]; subject M2): 0.38 min⁻¹
K1 in the cerebellum ([2]; subject M3): 1.14 mL/min/mL
k2 in the cerebellum ([2]; subject M3): 0.27 min⁻¹
K1 in the cerebellum ([2]; subject M4): 0.99 mL/min/mL
k2 in the cerebellum ([2]; subject M4): 0.29 min⁻¹
fraction of radioactivity in the plasma due to parent radiotracer [3]: 19%
clearance rate from the arterial plasma [3]: 0.0031 min⁻¹

COc1ccccc1N1CCN(CCN(C(=O)C2CCCCC2)c2ccccn2)CC1 [[C-11]WAY100635, [Carbonyl-C-11]N-(2-(1-(4-(2-Methoxyphenyl)-piperazinyl)ethyl)-N-pyridinyl) cyclohexanecarboxamide]
BPND (5-HT1A receptor [1]; ACG, mean over subjects): 7.9±1.2 and 7.92
BPND (5-HT1A receptor [1]; ACG, subject M1): 6.90
BPND (5-HT1A receptor [1]; ACG, subject M3): 7.64
BPND (5-HT1A receptor [1]; ACG, subject M4): 9.21
BPND (5-HT1A receptor [1]; IC, mean over subjects): 4.7±1.0 and 4.65
BPND (5-HT1A receptor [1]; IC, subject M1): 4.08
BPND (5-HT1A receptor [1]; IC, subject M3): 4.11
BPND (5-HT1A receptor [1]; IC, subject M4): 5.77
BPND (5-HT1A receptor [1]; MTC, mean over subjects): 7.0±1.2 and 7.00
BPND (5-HT1A receptor [1]; MTC, subject M1): 5.97
BPND (5-HT1A receptor [1]; MTC, subject M3): 8.37
BPND (5-HT1A receptor [1]; MTC, subject M4): 6.66
BPND (5-HT1A receptor [1]; RN, mean over subjects): 3.3±0.7 and 3.27
BPND (5-HT1A receptor [1]; RN, subject M1): 3.97
BPND (5-HT1A receptor [1]; RN, subject M3): 2.66
BPND (5-HT1A receptor [1]; RN, subject M4): 3.17
logP [6]: 3.28
DVND (nondisplaceable distribution volume, K1/k2) ([2]; cerebellum, mean over subjects): 2.62
DVND (nondisplaceable distribution volume, K1/k2) ([2]; cerebellum, subject M1): 2.55
DVND (nondisplaceable distribution volume, K1/k2) ([2]; cerebellum, subject M3): 2.62
DVND (nondisplaceable distribution volume, K1/k2) ([2]; cerebellum, subject M4): 2.70
cerebellar clearance rate, slow component [2]: 0.014 min⁻¹
K1 in the cerebellum ([2]; mean over subjects): 0.74 mL/min/mL
k2 in the cerebellum ([2]; mean over subjects): 0.28 min⁻¹
K1 in the cerebellum ([2]; subject M1): 0.51 mL/min/mL
k2 in the cerebellum ([2]; subject M1): 0.20 min⁻¹
K1 in the cerebellum ([2]; subject M3): 1.10 mL/min/mL
k2 in the cerebellum ([2]; subject M3): 0.42 min⁻¹
K1 in the cerebellum ([2]; subject M4): 0.62 mL/min/mL
k2 in the cerebellum ([2]; subject M4): 0.23 min⁻¹
fraction of radioactivity in the plasma due to parent radiotracer [3]: 29%
clearance rate from the arterial plasma [3]: 0.0069 min⁻¹

COc1ccccc1N1CCN(CCN(C(=O)C2CCCCC2)c2ccccn2)CC1 [WAY100635]
occupancy at the 5-HT1A receptor sites (5-HT1A receptor sites; M1, injected mass 1.0 nmol/kg): 18%
occupancy at the 5-HT1A receptor sites (5-HT1A receptor sites; M4, injected mass 0.7 nmol/kg): 13%
Pgp substrate (p-glycoprotein (Pgp); not told): Neither mefway nor WAY100635 have been found to be Pgp substrates

Source: article PMC3080024 (Synapse (New York, N.Y.), 2010)
